# Measurements taken from patent US9993478B2, “1-pyrazolyl-3-(4-((2-anilinopyrimidin-4-yl) oxy) napththalen-1-yl) ureas as P38 MAP knase inhibitors” (Respivert Ltd., priority 2011, dated 2018).
# System: d-U937 cells
# Experiment: Cell viability: MTT assay
# Format: cell-based, human
# Settings: 1 μg/mL
# Procedure: Differentiated U937 cells were pre-incubated with each test compound (final concentration 1 μg/mL or 10 μg/mL in 200 μL media indicated below) under two protocols: the first for 4 hr in 5% FCS RPMI1640 media and the second in 10% FCS RPMI1640 media for 24 h. The supernatant was replaced with new media (200 μL) and MTT stock solution (10 μL, 5 mg/mL) was added to each well. After incubation for 1 hr the media were removed, DMSO (200 μL) was added to each well and the plates were shaken lightly for 1 hr prior to reading the absorbance at 550 nm. The percentage loss of cell viability was calculated for each well relative to vehicle (0.5% DMSO) treatment. Consequently an apparent increase in cell viability for drug treatment relative to vehicle is tabulated as a negative percentage.
SMILES,MTT Assay Cell viability at time point in d-U937 Cells 4 h,MTT Assay Cell viability at time point in d-U937 Cells 24 h
"Cc1ccc(-n2nc(C(C)(C)C)cc2NC(=O)Nc2ccc(Oc3ccnc(Nc4cccc(Cl)c4)n3)c3ccccc23)cc1 [Example 13, 1-(3-(tert-butyl)-1-(p-tolyl)-1H-pyrazol-5-yl)-3-(4-((2-((3-chlorophenyl)amino)pyrimidin-4-yl)oxy)naphthalen-1-yl)urea]","−ve (−ve and +ve indicate the value is below and above respectively, the no significant effect threshold defined as 30% inhibition at 1 μg/mL at the time point indicated)","−ve (−ve and +ve indicate the value is below and above respectively, the no significant effect threshold defined as 30% inhibition at 1 μg/mL at the time point indicated)"
"COc1cccc(Nc2nccc(Oc3ccc(NC(=O)Nc4cc(C(C)(C)C)nn4-c4ccc(C)cc4)c4ccccc34)n2)c1 [Example 14, 1-(3-(tert-butyl)-1-(p-tolyl)-1H-pyrazol-5-yl)-3-(4-((2-((3-methoxyphenyl)amino)pyrimidin-4-yl)oxy)naphthalen-1-yl)urea]","−ve (−ve and +ve indicate the value is below and above respectively, the no significant effect threshold defined as 30% inhibition at 1 μg/mL at the time point indicated)","−ve (−ve and +ve indicate the value is below and above respectively, the no significant effect threshold defined as 30% inhibition at 1 μg/mL at the time point indicated)"
"Cc1ccc(-n2nc(C(C)(C)C)cc2NC(=O)Nc2ccc(Oc3ccnc(Nc4cccc(F)c4)n3)c3ccccc23)cc1 [Example 15, 1-(3-(tert-butyl)-1-(p-tolyl)-1H-pyrazol-5-yl)-3-(4-((2-((3-fluorophenyl)amino)pyrimidin-4-yl)oxy)naphthalen-1-yl)urea]","−ve (−ve and +ve indicate the value is below and above respectively, the no significant effect threshold defined as 30% inhibition at 1 μg/mL at the time point indicated)","−ve (−ve and +ve indicate the value is below and above respectively, the no significant effect threshold defined as 30% inhibition at 1 μg/mL at the time point indicated)"
"Cc1ccc(-n2nc(C(C)(C)C)cc2NC(=O)Nc2ccc(Oc3ccnc(Nc4ccc(Cl)cc4)n3)c3ccccc23)cc1 [Example 16, 1-(3-(tert-butyl)-1-(p-tolyl)-1H-pyrazol-5-yl)-3-(4-((2-((4-chlorophenyl)amino)pyrimidin-4-yl)oxy)naphthalen-1-yl)urea]","−ve (−ve and +ve indicate the value is below and above respectively, the no significant effect threshold defined as 30% inhibition at 1 μg/mL at the time point indicated)","−ve (−ve and +ve indicate the value is below and above respectively, the no significant effect threshold defined as 30% inhibition at 1 μg/mL at the time point indicated)"
"COc1ccc(Nc2nccc(Oc3ccc(NC(=O)Nc4cc(C(C)(C)C)nn4-c4ccc(C)cc4)c4ccccc34)n2)cc1 [Example 17, 1-(3-(tert-butyl)-1-(p-tolyl)-1H-pyrazol-5-yl)-3-(4-((2-((4-methoxyphenyl)amino)pyrimidin-4-yl)oxy)naphthalen-1-yl)urea]","−ve (−ve and +ve indicate the value is below and above respectively, the no significant effect threshold defined as 30% inhibition at 1 μg/mL at the time point indicated)","−ve (−ve and +ve indicate the value is below and above respectively, the no significant effect threshold defined as 30% inhibition at 1 μg/mL at the time point indicated)"
